Source: article PMC8769378, “Underlining the Importance of Peripheral Protic Functional Groups to Enhance the Proton Exchange of Gd-Based MRI Contrast Agents” (Inorganic Chemistry, 2021)
Where “and” joins values, the source holds several entries; their conditions need not be identical. Equal entries are not always repeated.

Assay: Analysis of 1/T1 ^1H NMRD profiles
Format: physicochemical
Protocol: The relaxometric characterization of the Gd complexes was carried out by recording their ^1H nuclear magnetic relaxation dispersion (NMRD) profiles at 283, 298, and 310 K in the proton Larmor frequency range 0.01–120 MHz, corresponding to magnetic field strengths varying between 2.34 × 10^–4 and 3 T (Figure 2). The shape of the NMRD profiles and their temperature dependence (r1 decreases with increasing temperature) reflect the general behavior of small Gd^III complexes, characterized by a constant r1 value at low fields, a dispersion around 4–6 MHz, and another region at high fields (>20 MHz) where r1 slightly decreases. […] A least-squares fit of the profiles was carried out in terms of the established theory of paramagnetic relaxation expressed by the Solomon–Bloembergen–Morgan[30],[31] and Freed’s[32] equations for the innersphere (IS) and outersphere (OS) proton relaxation mechanisms, respectively (Table 3). Because of the large number of parameters involved in the fitting procedure, some of them were fixed to known or reasonable values: The hydration number q was fixed to 1, and the distance between Gd^III and the protons of the bound water molecule, r, was fixed to 3.0 Å; the distance of closest approach, a, of the outersphere water molecules to Gd^III was set to 4.0 Å, and for the relative diffusion coefficient D, standard values of 1.7, 2.24, and 3.1 × 10^–5 cm^2 s^–1 (283, 298, and 310 K) were used. […] The difference in relaxivity between GdL1 and GdL2 cannot account for the difference in τR since their molecular weight is very similar; therefore, we considered that the pendant propionate moiety of GdL2 allows for the presence of second sphere (SS) water molecules in H-bonding interaction with the carboxylate group at a distance from Gd^III sufficiently short (<4 Å) and with a residence time sufficiently long to be affected by the rotation. […] Therefore, we analyzed the NMRD profiles for GdL2 also considering the SS contribution, expressed in terms of two additional parameters: the number qSS of second sphere water molecules and their rotational correlation time, τR(SS). The average distance from the paramagnetic center was arbitrarily fixed at 3.5 Å, an intermediate value between those of water molecules in the inner (3.0 Å) and outer (4.0 Å) solvation shell.[33] In addition, since GdL1 and GdL2 are structurally related to the recently reported GdHPADO3A-like complexes having a carbonyl group in place of the methyl group present in GdHPDO3A, τM was fixed to that reported for GdHPADO3A at pH 7 (20 ns).[7] The electronic and reorientation parameters reported in Table 3 for GdL1 and GdL2 are in good agreement with those of other GdHPDO3A-like complexes. Finally, considering the contribution of two second sphere water molecules characterized by a rotational correlation time τR(SS) of 30 ps, the contribution of the SS molecules to the relaxivity of GdL2 is about 0.3 mM^–1 s^–1 at 20 MHz and 298 K almost equal to the Δr1 between GdL1 and GdL2.
Proton relaxation measurements (1/T1) and the resulting 1/T1 NMRD profiles were measured on a fast-field cycling (FFC) Stelar SmarTracer relaxometer over a continuum of magnetic field strengths from 0.000 24 to 0.25 T (corresponding to 0.01–10 MHz proton Larmor frequencies). The relaxometer operates under computer control with an absolute uncertainty in 1/T1 of ±1%. […] Furthermore, the real temperature inside the probe head was additionally monitored by a Fluke 52 k/j digital thermometer (Fluke, Zürich, Switzerland). The gadolinium concentration was determined by measuring the bulk magnetic susceptibility shifts of the t-BuOH ^1H NMR signal. Additional data in the 20–120 MHz frequency range were obtained with a high field relaxometer (Stelar) equipped with the HTS-110 3T metrology cryogen-free superconducting magnet. […] The pH-dependent relaxivity measurements of GdL1 and GdL2 complexes were carried out by direct titration of the samples (GdL2, 3.0 < pH < 12.5; GdL1, 4 < pH < 10). […]

Δ^2 (NMRD fit): 8.5 ± 0.2 10^19 s^–2
τv (NMRD fit): 13.7 ± 0.5 ps
τR (NMRD fit, q = 1): 68 ± 2 ps
τR(SS) (determined for qSS = 2 and rSF = 3.5 Å): 30 ps and 30 ± 2 ps
Structure (SMILES): O=C([O-])CN1CCN(CC(=O)[O-])CCN(CC(O)C(=O)O)CCN(CC(=O)[O-])CC1.[Gd+3] (stereo not shown) [GdL2]
contribution of the second sphere (SS) water molecules to the relaxivity (20 MHz, 298 K, qSS = 2, τR(SS) 30 ps): about 0.3 mM^–1 s^–1
^298r1-60-MHz (298 K, 60 MHz, pH 7.4): 4.6 ± 0.1 mM^–1 s^–1
^310r1-60-MHz (310 K, 60 MHz, pH 7.4): 3.6 ± 0.1 mM^–1 s^–1
